# Data from US11865103B2, “Methods of treating disorders associated with glycosylation defective proteins” (CASE WESTERN RESERVE UNIVERSITY, priority 2016, dated 2024).
# Test system: hCLRN1^N48K-YFP; clrn1^+/+ larvae
# Experiment: Larval survival/lethality by TG or ART dose and treatment duration
# Type: in vivo, zebrafish
# Set-up: key: ‘S’ =Surviving; ‘L’ = Lethal; ‘S/L’ Larvae surviving with apoptosis/necrosis of hair cells
# Protocol: Thapsigargin (TG, 1 mg, Sigma-Aldrich, #T9033) stock in 100% DMSO was diluted in E3 medium to make the required final concentration of the drug. Five different concentrations that were earlier reported to induce ER stress and are non-toxic or lower lethal dose (LD50) in the zebrafish (0.1, 0.5, 1.0, 2.5, 5 μM concentrations) were used in this study. A total of 25 larvae per dosage and treatment duration from the genotypes hCLRN1^N48K-YFP; clrn1^+/+ and hCLRN1-YFP; clrn1^+/+, no older than 72 hours post fertilization (hpf) at the start of the experiment, were placed in a well of 12-well uncoated culture plate (BD Falcon, Canaan, CT). For ER stress induction, larvae were incubated in different dosage of TG from 1 hr to overnight at 28.5° C., followed by three times wash with E3 medium at 28.5° C. (Table 2) and hair cells from the hCLRN1^N48K-YFP; clrn1^+/+ and hCLRN1-YFP; clrn1^+/+ lines were examined for the respective protein distribution pattern in the hair cell bundle and the cell body. Live confocal images of ‘O’ and ‘ML1’ neuromasts per larvae were capture using Leica SP2 confocal microscope with 40× oil immersion objective. Unadjusted 1 micron middle section images of four hair bundles per ML1 neuromast of larvae from TG treated and untreated groups were analyzed using Image J software version v. 1.48 (FIG. 4). The hair bundle trafficked amount of hCLRN1^N48K protein corresponds to the change in YFP intensity in the hair bundle in the TG treated larvae. Quantification of YFP fluorescence intensity was carried out as described in the previous experiment for unconventional trafficking of hCLRN1^N48K-YFP by hGRASP55 cargos. […] Student's t-test was used to confirm the observed changes in the YFP intensity in the hair bundles of TG treatment compared to untreated hCLRN1^N48K-YFP; clrn1^+/+ larvae, is significant (FIG. 4J).
# Arthemisinin (ART, 100 mg, Sigma-Aldrich, #361593) in 100% DMSO was diluted in E3 medium to make the final concentration. Five different concentrations within the range of reported ER stress inducing level in the zebrafish (0.1, 0.25, 0.4, 0.5, and 1 μM concentrations) were used in this study. A total of 25 larvae, no older than 72 hpf at the start of the experiment, were placed in a well of 12-well uncoated culture plate (BD 35 Falcon, Canaan, CT). For ER stress induction, larvae were exposed in different dosage of ART for different duration at 28.5° C. (Table 3) and washed three times with E3 medium, and hair cells from the hCLRN1-YFP; clrn1^+/+ larvae and hCLRN1^N48K-YFP; clrn1^+/+ larvae were examined for the respective protein distribution pattern in the hair cell bundle and the cell body. Live confocal Z-stack images of otic ‘O’ and middle ‘ML’ neuromasts per larvae of hCLRN1-YFP; clrn1^+/+ larvae and hCLRN1^N48K-YFP; clrn1^+/+ genotypes from the untreated group in the E3 medium, 0.01% DMSO treatment group and ART treatment group were capture using Leica SP2 confocal microscope at 40× oil immersion objective. Hair cells from 2 otic (0) and 2 middle (ML) neuromasts per larvae were examined for the change in YFP intensity in the hair bundle and cell body. From the captured confocal images of these neuromast hair cells, unadjusted 1 micron middle section images of 4 mature hair bundles from ML1 neuromast per larvae were considered for the YFP intensity quantification in unadjusted ROI covering the middle section of each hair bundles using the imageJ software. […] The hair bundle trafficked amount of hCLRN1^N48K protein corresponds to the change in YFP intensity in the hair bundle in the ART treated larvae. Quantification of YFP fluorescence intensity was carried out as described in the previous experiment for unconventional trafficking of hCLRN1^N48K-YFP by hGRASP55 cargos. Student's t-test was used to confirm the observed changes in the YFP intensity in the hair bundles of ART treatment compared to untreated and TG treated hCLRN1^N48K-YFP; clrn1^+/+ larvae, is significant (FIG. 4J).
smiles,measurement,setting,value
"C[C@@H]1CC[C@H]2[C@@H](C)C(=O)O[C@@H]3O[C@@]4(C)CC[C@@H]1[C@]32OO4 [ART, Artemisinin]",Larvae survival,"ART 0.1 μM, exposure 1 h",S
same,Larvae survival,"ART 0.1 μM, exposure 2 h",S
same,Larvae survival,"ART 0.1 μM, exposure 4 h",S
same,Larvae survival,"ART 0.1 μM, exposure 6 h",S
same,Larvae survival,"ART 0.1 μM, exposure 8 h",S
same,Larvae survival,"ART 0.1 μM, exposure 10 h",S
same,Larvae survival,"ART 0.1 μM, post-exposure recovery time 10 h",S
same,Larvae survival,"ART 0.1 μM, post-exposure recovery time 24 h",S
same,Larvae survival,"ART 0.1 μM, post-exposure recovery time 48 h",S
same,Larvae survival,"ART 0.25 μM, exposure 1 h",S
same,Larvae survival,"ART 0.25 μM, exposure 2 h",S
same,Larvae survival,"ART 0.25 μM, exposure 4 h",S
same,Larvae survival,"ART 0.25 μM, exposure 6 h",S
same,Larvae survival,"ART 0.25 μM, exposure 8 h",S
same,Larvae survival,"ART 0.25 μM, exposure 10 h",S
same,Larvae survival,"ART 0.25 μM, post-exposure recovery time 10 h",S
same,Larvae survival,"ART 0.25 μM, post-exposure recovery time 24 h",S
same,Larvae survival,"ART 0.25 μM, post-exposure recovery time 48 h",S
same,Larvae survival,"ART 0.4 μM, 4 hours exposure group, post-exposure recovery time 10 h",S
same,Larvae survival,"ART 0.4 μM, 4 hours exposure group, post-exposure recovery time 24 h",S
same,Larvae survival,"ART 0.4 μM, 4 hours exposure group, post-exposure recovery time 48 h",S
same,Larvae survival,"ART 0.4 μM, exposure 1 h",S
same,Larvae survival,"ART 0.4 μM, exposure 2 h",S
same,Larvae survival,"ART 0.4 μM, exposure 4 h",S
same,Larvae survival,"ART 0.4 μM, exposure 6 h",S/L
